Laboratory results taken from patent US20240398835A1, “METHODS FOR TREATING CONGENITAL DISORDERS OF GLYCOSYLATION” (priority 2023, published 2024).

How the values were obtained:
Format in all cases: in vivo
[1] = tested on: R318W PM 1 (R318W Human / R298W C. elegans point mutation); experiment: C. elegans model growth assay (worm body area), R318W PM 1 line
Method: (§1) Five lines of GMPPA disorder models were generated in C. elegans using CRISPR/Cas9 gene editing: • One line GMPPA Human (Y47DA9.1 C. elegans) knockout (GMPPA KO) • Two lines T292P Human (S272P C. elegans) point mutation (T292P PM1, T292P PM2) • Two lines R318W Human (R298W C. elegans) point mutation (R318W PM1, R318W PM2)
(§2) These animals were tested for growth delays, temperature sensitivity, and mitotic stress sensitivity, with the dual goals of validating C. elegans as a model for studying GMPPA-CDG and identifying a robust phenotype that could be leveraged in future screening of novel pharmaceuticals for the treatment of the deleterious effects of this mutation.
(§3) To assess the effect of Compounds 1-6 on mitigating the growth deficit of C. elegans carrying a mutation in the GMPPA gene, the growth of the five mutant GMPPA C. elegans lines that were either untreated or treated with one of 6 different drugs (Compounds 1-6), at different concentrations, was measured. C. elegans were allowed to develop to the LI larval stage in the liquid solution. LI C. elegans were then placed onto plates seeded with inactivated OP50 containing the appropriate drug treatment in 0.1% DMSO, and were kept at 20° C. throughout the assay. About thirty 30 C. elegans synchronized at the LI stage of each genotype were placed onto 3 replicate plates containing the appropriate drug treatment and allowed to grow to adulthood at 20° C. Plates were imaged at the same time each day using the WormLab system (MBF Bioscience). Worm area was measured using the WormLab software. Animal sizes of each treatment were compared to sizes of untreated N2 control animals, as well as untreated animals of the same genotype on each day using ANOVA, followed by post-hoc t-tests corrected for multiple comparisons using the Benjamini-Hochberg correction procedure. Analyses were performed and plotted using custom R code.
(§4) To study the effects of the different drugs on growth, the size (body area) of animals treated with each concentration of each drug was compared to the size (body area) of untreated animals of the same genotype on the same day.

[2] = tested on: R318W PM 2 (R318W Human / R298W C. elegans point mutation); experiment: C. elegans model growth assay (worm body area), R318W PM 2 line
Method: as §1, §2, §3, §4

[3] = tested on: GMPPA KO (GMPPA Human / Y47DA9.1 C. elegans knockout); experiment: C. elegans model growth assay (worm body area), GMPPA KO line
Method: as §1, §2, §3, §4

[4] = tested on: T292P PM 1 (T292P Human / S272P C. elegans point mutation); experiment: C. elegans model growth assay (worm body area), T292P PM 1 line
Method: as §1, §2
as §3, with “code. […]” for “code.”

[5] = tested on: T292P PM 2 (T292P Human / S272P C. elegans point mutation); experiment: C. elegans model growth assay (worm body area), T292P PM 2 line; conditions: 200 nM, Young Adult
Method: as §1, §2
To assess the effect of Compounds 1-6 on mitigating the growth deficit of C. elegans carrying a mutation in the GMPPA gene, the growth of the five mutant GMPPA C. elegans lines that were either untreated or treated with one of 6 different drugs (Compounds 1-6), at different concentrations, was measured. C. elegans were allowed to develop to the LI larval stage in the liquid solution. LI C. elegans were then placed onto plates seeded with inactivated OP50 containing the appropriate drug treatment in 0.1% DMSO, and were kept at 20° C. throughout the assay. […] Worm area was measured using the WormLab software. […]

[6] = 20 μM (as printed, second 20 μM group, last in table), Adult (day 5)
[7] = 20 μM (as printed, second 20 μM group, last in table), Young Adult
[8] = 200 μM (third concentration group), Adult (day 5)
[9] = 200 μM (third concentration group), Young Adult
[10] = 200 μM (third concentration group), Adult (day 4)

SMILES	% Increase size (compared to untreated) ([1]; 20 nM, Adult (day 5)) [%]	% Increase size (compared to untreated) ([1]; 200 nM, Adult (day 5)) [%]	% Increase size (compared to untreated) ([1]; 2 μM, Adult (day 5)) [%]	% Increase size (compared to untreated) ([1]; 2 μM, Young Adult) [%]	% Increase size (compared to untreated) ([2]; 2 μM, Adult (day 5)) [%]	% Increase size (compared to untreated) ([1]; 20 nM, L3) [%]	% Increase size (compared to untreated) ([1]; 20 nM, Young Adult) [%]	% Increase size (compared to untreated) ([1]; 200 nM, Young Adult) [%]	% Increase size (compared to untreated) ([1]; 20 μM, L3) [%]	% Increase size (compared to untreated) ([3]; 2 μM, Adult (day 4)) [%]	% Increase size (compared to untreated) [1, 6] [%]	% Increase size (compared to untreated) [1, 7] [%]	% Increase size (compared to untreated) ([1]; 20 μM, Adult (day 5)) [%]	% Increase size (compared to untreated) [1, 8] [%]	% Increase size (compared to untreated) [1, 9] [%]	% Increase size (compared to untreated) ([2]; 2 μM, Young Adult) [%]	% Increase size (compared to untreated) [3, 10] [%]	% Increase size (compared to untreated) ([1]; 20 μM, Young Adult) [%]	% Increase size (compared to untreated) ([2]; 2 μM, Adult (day 4)) [%]	% Increase size (compared to untreated) ([2]; 20 μM, Young Adult) [%]	other results
C[C@H](NCc1ccc(OCc2cccc(F)c2)cc1)C(N)=O [Compound 5, (S)-2-((4-((3-fluorobenzyl)oxy)benzyl)amino) propanamide]	11.09	9.35	9.47	16.21	5.51																% Increase size (compared to untreated) ([1]; 2 μM, L3): 16.41%
CC(C)(C)NC(=O)[C@H]1CC[C@H]2[C@@H]3CC[C@H]4NC(=O)C=C[C@]4(C)[C@H]3CC[C@]12C [Compound 1, finasteride]	8.79	7.28	9.08	12.70		12.77	11.59	16.92	10.73	6.47											% Increase size (compared to untreated) ([1]; 200 nM, L3): 13.73%
CC(O)(CS(=O)(=O)c1ccc(F)cc1)C(=O)Nc1ccc(C#N)c(C(F)(F)F)c1 (centres unmarked) [Compound 2, N-(4-cyano-3-(trifluoromethyl)phenyl)-3-((4-fluorophenyl)sulfonyl)-2-hydroxy-2-methylpropanamide]			13.14	15.14	9.82						12.37	9.40	6.98	13.42	15.18	20.08	10.83				% Increase size (compared to untreated) ([3]; 20 μM, Adult (day 4)): 9.60%; % Increase size (compared to untreated) [4, 9]: 16.12%
CCn1cc(C(=O)O)c(=O)c2cnc(N3CCNCC3)nc21 [Compound 3, 8-Ethyl-5,8-dihydro-5-oxo-2-(1-piperazinyl)pyrido (2,3-d)pyrimidine-6-carboxylic acid]			8.12	18.05					14.96	12.37	12.27	15.84	12.83	10.51	14.43		7.92	9.03	11.20	14.52	% Increase size (compared to untreated) ([2]; 20 μM, Adult (day 5)): 5.57%; % Increase size (compared to untreated) ([2]; 20 μM, L3): 11.65%; % Increase size (compared to untreated) ([2]; 200 μM, Adult (day 4)): 8.02%; % Increase size (compared to untreated) ([2]; 200 μM, Adult (day 5)): 5.96%; % Increase size (compared to untreated) ([3]; 2 μM, Young Adult): 12.64%; % Increase size (compared to untreated) ([4]; 2 μM, Adult (day 5)): 14.96%
Cc1ccc2c([nH]c(=O)c3c(=O)cc(C(=O)OCCC(C)C)oc32)c1C [Compound 6, 3-methylbutyl 7,8-dimethyl-4,5-dioxo-6H-pyrano[3,2-c]quinoline-2-carboxylate]	11.15	12.15	7.41	16.84		18.59	27.26	18.38	13.93	6.58			10.80			18.25		18.41	8.97	22.20	% Increase size (compared to untreated) ([2]; 20 nM, Young Adult): 20.62%; % Increase size (compared to untreated) ([2]; 200 nM, Adult (day 4)): 7.96%; % Increase size (compared to untreated) ([2]; 200 nM, Young Adult): 25.23%; % Increase size (compared to untreated) ([3]; 20 μM, Young Adult): 13.22%; % Increase size (compared to untreated) [5]: 13.63%
Cc1nc2n(c(=O)c1CCN1CCC(c3noc4cc(F)ccc34)CC1)CCCC2O (centres unmarked) [Compound 4, 3-(2-(4-(6-fluorobenzo[d]isoxazol-3-yl)piperidin-1-yl)ethyl)-9-hydroxy-2-methyl-6,7,8,9-tetrahydro-4H-pyrido[1,2-a]pyrimidin-4-one]	10.32	11.03	9.47	14.09	6.08		11.38			6.86			10.72								% Increase size (compared to untreated) ([2]; 200 nM, Adult (day 4)): 8.35%; % Increase size (compared to untreated) ([3]; 20 nM, Adult (day 4)): 7.18%; % Increase size (compared to untreated) ([4]; 20 μM, Adult (day 5)): 6.70%
